Results taken from patent US20150216903A1, “COMPOUNDS FOR IMPROVED VIRAL TRANSDUCTION” (BLUEBIRD BIO, INC., priority 2012, published 2015).

Columns and labels:
[1] = tested on: CD34+ cells; test: Vector Copy Number analysis (qRT-PCR, viral LTR vs human beta-actin) after GFP+ lentivirus transduction; assay type: cell-based
Procedure: (§1) Pre-stimulated cells (Example 1) were counted after 18-24 hours of culture. The cells were collected and spun for 5 minutes at 1500 RPM. 1.2×10^6 pre-stimulated CD34^+ cells were resuspended in 60 uL 10× cytokines (1000 ng/mL SCF, 1000 ng/mL TPO, 1000 ng/mL FltL, and 300 ng/mL IL-3), 7.8 uL protamine sulfate, 111 uL viral supernatant, and 361.2 uL SCGM. 90 uL cell/virus suspension (about 200,000 cells) was added to each well of a standard non-adherent 96-well plate. dmPGE2 was added during this viral transduction step at a final concentration of 100 uM, 50 uM, 25 uM, 12.5 uM, 1 uM, or 0 uM.
(§2) After 24 hours of culture with virus and dmPGE2, cells were washed prior to subsequent functional validation assays. Washing was performed by transferring cells to a 96-well U-bottom plate and spinning for 5 minutes at 1500 RPM in a standard tabletop centrifuge. Media was aspirated and cells were resuspended in 200 uL SCGM. Cells were spun again for 5 minutes at 1500 RPM and media was aspirated. Cells were again resuspended in 200 uL SCGM then spun for 5 minutes at 1500 RPM, and again the media was aspirated. Particular functional validation assays are described below.
(§3) Washed cells were resuspended in 200 uL SCGM+lx cytokines (as described in Example 1) and transferred to a standard 12-well non-adherent tissue culture plate containing an additional 800 uL SCGM+lx cytokines Cells were maintained for an additional 6 days in a standard humidified tissue culture incubator (5% CO2) and then subjected Vector Copy Number analysis (Example 5) and FACS analysis. For FACS analysis, cells were assayed for the presence of a virally-encoded transgene, green fluorescent protein (GFP). The frequency of the virally-labeled cells within the pool of cultured cells was quantified as the frequency of GFP+ cells within the population. The mean fluorescence intensity of labeled cells was quantified.
Briefly, total genomic DNA was isolated from cells through standard protocols (for example, through DNEasy columns from Qiagen). Genomic DNA was subjected to quantitative real-time polymerase chain reaction (qRT-PCR) with TaqMan probes for viral LTR and human beta-actin. The Ct values for viral signal and beta-actin signal were normalized to a standardized control, and the number of viral copies per copy of beta actin were calculated. A linear relationship between the vector copy number and the mean fluorescence intensity (Example 4) was observed when a viral construct that encodes GFP was used.
(§4) Tables 3A-C indicate the dose-response of dmPGE2 in promoting viral transduction of CD34+ cells for three separate experiments. CD34+ cells were thawed and pre-stimulated with SCF, TPO, FltL, and IL3, then transduced (A) with GFP+ lentivirus at a multiplicity of infection of 25, (B) with GFP+ lentivirus at a multiplicity of infection of 5, or (C) transduced with an ALD (ABCD1)-expressing lentivirus at a multiplicity of infection of 25. Cells were exposed to dmPGE2 during the viral transduction step (24-48 hours of culture). Cells were then washed and analyzed by flow cytometry and PCR after approximately 1 week in culture. The percentage of cells positive for GFP (A, B) or ALD (C) via FACS staining is indicated, along with the mean fluorescent intensity (MFI) and vector copy number (VCN) (A, B).

[2] = tested on: CD34+ cells; test: Time-course and dose-response of dmPGE2 in promoting viral transduction (GFP+ lentivirus, flow cytometry); assay type: cell-based, human; conditions: for percentage of cells positive for GFP: MOI 25
Procedure: MCD-34+ cells were thawed and pre-stimulated with SCF, TPO, FltL and IL3, then transduced with GFP+ lentivirus at a multiplicity of infection of 25. Cells were exposed to dmPGE2 during the viral transduction step (24-25 hours of culture; 24-26 hours of culture; 24-28 hours of culture; or 24-48 hours of culture) and then washed and analyzed by flow cytometry after approximately 1 week in culture. Alternatively, cells were exposed to dmPGE2 during the pre-stimulation step (22-24 hours of culture; 23-24 hours of culture).

[3] = tested on: CD34+ cells; test: FACS staining after transduction with ALD (ABCD1)-expressing lentivirus; assay type: cell-based, human; conditions: ABCD1 lentivirus MOI 25
Procedure: One vial of CD34+ cells (AllCells) were thawed by incubating at 37° C. for 1-2 minutes and contents were transferred to 10 mL Stem Cell Growth Media (hereafter referred to as SCGM) in a 15-mL conical tube. Cells were spun for 5 minutes at 1500 RPM in a standard tabletop centrifuge, resuspended in 10 mL SCGM and counted on a hemacytometer. A volume correlating with an appropriate number of cells was transferred to a fresh 15-mL conical tube, and again spun for 5 minutes at 1500 RPM. Cells were resuspended to the desired cell concentration in SCGM+1× cytokines (100 ng/mL SCF, 100 ng/mL TPO, 100 ng/mL FltL, and 30 ng/mL IL-3), and plated on a sterile non-adherent surface at 37° C. in a standard humidified tissue culture incubator (5% CO2).
as §1, §2, §3, §4

[4] = tested on: HSCs; conditions: published data, Goessling et al., Cell Stem Cell 2011; cited from earlier work

## CCCCC(C)(C)[C@H](O)/C=C/[C@H]1[C@H](O)CC(=O)[C@@H]1C/C=C\CCCC(=O)O [dmPGE2, 16,16-dimethyl PGE2]
[1]; dmPGE2 12.5 uM during transduction, GFP lentivirus MOI 5
  VCN: 0.18
[1]; dmPGE2 12.5 uM during transduction, GFP lentivirus MOI 25
  VCN: 1.5
[1]; dmPGE2 25 uM during transduction, GFP lentivirus MOI 5
  VCN: 0.21
[1]; dmPGE2 25 uM during transduction, GFP lentivirus MOI 25
  VCN: 1.7
[1]; dmPGE2 50 uM during transduction, GFP lentivirus MOI 5
  VCN: 0.715
[1]; dmPGE2 50 uM during transduction, GFP lentivirus MOI 25
  VCN: 2.2
[1]; dmPGE2 100 uM during transduction, GFP lentivirus MOI 5
  VCN: 0.83
[1]; dmPGE2 100 uM during transduction, GFP lentivirus MOI 25
  VCN: 3.55
[2]; dmPGE2 1 uM, Pre-Stim w/PGE2 Minus 2 Hr (22-24 hours of culture)
  percentage of cells positive for GFP: 25.74%
[2]; dmPGE2 1 uM, Virus and PGE2 24 Hr (24-48 hours of culture)
  percentage of cells positive for GFP: 32.03%
[2]; dmPGE2 1 uM, Virus and PGE2 Plus 1 Hr (24-25 hours of culture)
  percentage of cells positive for GFP: 2.94%
[2]; dmPGE2 1 uM, Virus and PGE2 Plus 2 Hr (24-26 hours of culture)
  percentage of cells positive for GFP: 7.17%
[2]; dmPGE2 1 uM, Virus and PGE2 Plus 4 Hr (24-28 hours of culture)
  percentage of cells positive for GFP: 21.10%
[2]; dmPGE2 12.5 uM, Pre-Stim w/PGE2 Minus 1 Hr (23-24 hours of culture)
  percentage of cells positive for GFP: 22.13%
[2]; dmPGE2 12.5 uM, Pre-Stim w/PGE2 Minus 2 Hr (22-24 hours of culture)
  percentage of cells positive for GFP: 30.64%
[2]; dmPGE2 12.5 uM, Virus and PGE2 24 Hr (24-48 hours of culture)
  percentage of cells positive for GFP: 47.42%
[2]; dmPGE2 12.5 uM, Virus and PGE2 Plus 1 Hr (24-25 hours of culture)
  percentage of cells positive for GFP: 1.97%
[2]; dmPGE2 12.5 uM, Virus and PGE2 Plus 2 Hr (24-26 hours of culture)
  percentage of cells positive for GFP: 5.32%
[2]; dmPGE2 12.5 uM, Virus and PGE2 Plus 4 Hr (24-28 hours of culture)
  percentage of cells positive for GFP: 28.08%
[2]; dmPGE2 25 uM, Pre-Stim w/PGE2 Minus 1 Hr (23-24 hours of culture)
  percentage of cells positive for GFP: 24.05%
[2]; dmPGE2 25 uM, Pre-Stim w/PGE2 Minus 2 Hr (22-24 hours of culture)
  percentage of cells positive for GFP: 31.90%
[2]; dmPGE2 25 uM, Virus and PGE2 24 Hr (24-48 hours of culture)
  percentage of cells positive for GFP: 50.69%
[2]; dmPGE2 25 uM, Virus and PGE2 Plus 1 Hr (24-25 hours of culture)
  percentage of cells positive for GFP: 1.76%
[2]; dmPGE2 25 uM, Virus and PGE2 Plus 2 Hr (24-26 hours of culture)
  percentage of cells positive for GFP: 4.76%
[2]; dmPGE2 25 uM, Virus and PGE2 Plus 4 Hr (24-28 hours of culture)
  percentage of cells positive for GFP: 27.46%
[2]; dmPGE2 50 uM, Pre-Stim w/PGE2 Minus 1 Hr (23-24 hours of culture)
  percentage of cells positive for GFP: 22.98%
[2]; dmPGE2 50 uM, Pre-Stim w/PGE2 Minus 2 Hr (22-24 hours of culture)
  percentage of cells positive for GFP: 31.85%
[2]; dmPGE2 50 uM, Virus and PGE2 24 Hr (24-48 hours of culture)
  percentage of cells positive for GFP: 54.63%
[2]; dmPGE2 50 uM, Virus and PGE2 Plus 1 Hr (24-25 hours of culture)
  percentage of cells positive for GFP: 1.85%
[2]; dmPGE2 50 uM, Virus and PGE2 Plus 2 Hr (24-26 hours of culture)
  percentage of cells positive for GFP: 4.23%
[2]; dmPGE2 50 uM, Virus and PGE2 Plus 4 Hr (24-28 hours of culture)
  percentage of cells positive for GFP: 27.45%
[2]; dmPGE2 100 uM, Pre-Stim w/PGE2 Minus 1 Hr (23-24 hours of culture)
  percentage of cells positive for GFP: 25.14%
[2]; dmPGE2 100 uM, Pre-Stim w/PGE2 Minus 2 Hr (22-24 hours of culture)
  percentage of cells positive for GFP: 34.85%
[2]; dmPGE2 100 uM, Virus and PGE2 24 Hr (24-48 hours of culture)
  percentage of cells positive for GFP: 76.44%
[2]; dmPGE2 100 uM, Virus and PGE2 Plus 1 Hr (24-25 hours of culture)
  percentage of cells positive for GFP: 2.48%
[2]; dmPGE2 100 uM, Virus and PGE2 Plus 2 Hr (24-26 hours of culture)
  percentage of cells positive for GFP: 4.02%
[2]; dmPGE2 100 uM, Virus and PGE2 Plus 4 Hr (24-28 hours of culture)
  percentage of cells positive for GFP: 21.57%
[2]; time windows commonly used for promoting hematopoietic stem cell activity, on the order of one to two hours
  improvement of viral transduction: unable to improve viral transduction
[3]; dmPGE2 1 uM during transduction (24-48 hours of culture)
  % Positive (ALD): 34.13%
[3]; dmPGE2 12.5 uM during transduction (24-48 hours of culture)
  % Positive (ALD): 45.36%
[3]; dmPGE2 25 uM during transduction (24-48 hours of culture)
  % Positive (ALD): 43.76%
[3]; dmPGE2 50 uM during transduction (24-48 hours of culture)
  % Positive (ALD): 56.10%
[3]; dmPGE2 100 uM during transduction (24-48 hours of culture)
  % Positive (ALD): 72.26%
[4]
  promotion of viral transduction of HSCs: unable to promote viral transduction of HSCs
